# Laboratory results as given in US9695133B2, “Quinazolinone-based oncogenic-RAS-selective lethal compounds and their use” (THE TRUSTEES OF COLUMBIA UNIVERSITY IN THE CITY OF NEW YORK, priority 2012, dated 2017).
# Like-named read-outs stand apart in the source and are kept apart here.
# How the values were obtained:
# [1] = tested on: BJeH, BJeHLT, BJeLR and DRD cells; format: cell-based; conditions: for RSL phenotype (oncogenic-RAS-selective lethality): four BJ-derived cell lines, with and without HRAS G12V; for Selectivity score: EC50 (BJeH)/EC50 (BJeLR)
# [2] = tested on: GPX4; assay: GPX4 knockdown (siGPX4) in HT-1080 cells
# [3] = tested on: BJeLR cells; assay: RSL testing: growth inhibition (alamar blue) in BJeLR cells; format: cell-based; conditions: Homo sapiens
# Procedure: Cell viability was determined using alamar blue and percent growth inhibition computed as described previously (Id.).
# [4] = tested on: GFP-ALOX5; assay: GFP-ALOX5 translocation in HT-1080 cells; format: cell-based, human
# Procedure: HT-1080 cells stably expressing GFPALOX5 were treated with the indicated compounds under the conditions detailed in FIG. 13b. […] Note that digioxin (DIG) did translocate GFP-ALOX5 to the perinuclear membrane region in a small portion of the cell population (arrow). Digioxin is known to increase cellular calcium concentration that can translocate GFP-ALOX5, similarly to ionomycin. Scale bars, 60 μm.
# A cDNA of ALOX5 (GeneBank ID: BC130332.1) was cloned into a pBabe-puro vector to express GFP fused ALOX5 (N-terminal GFP fusion) in cells. The plasmid was transfected into PLAT-GP cells (Cell Biolabs Inc., cat # RV-103, San Diego, Calif.) along with a pVSV-G helper plasmid to produce retrovirus harboring the expression plasmid. 0.2 million target cells (BJeH, BJeHLT, BJeLR or HT-1080 cells) were seeded in 10 cm tissue culture dishes and incubated in the tissue culture incubator for 1 day. A frozen stock of retrovirus solution was thawed at 37° C. for 2 minutes, and polybrene (Sigma, cat. # H9268) was added at a final concentration of 8 μg/mL. Culture medium was replaced with virus/polybrene mix and the culture dish was incubated for two hours with rocking every 30 minutes. After 2 hours, 10 mL of growth media was added to culture dish, and the culture was incubated further for 2 days. Cell lines stably expressing GFP-ALOX5 protein were selected using 1.5 μg/mL puromycin and used for the GFP-ALOX5 translocation assay.
# Next, GFP-ALOX5-expressing HT-1080 cells were treated with these non-RSL and RSL compounds and changes in the location of GFP-ALOX5 were monitored as a measure of ALOX protein activation. […] Digoxin is known to elevate intracellular calcium (McGarry et al., 1993), which is likely to cause the translocation of GFP-ALOX5, similar to ionomycin. Note that ionomycin and digoxin are not RSL compounds and induce translocation of GFP-ALOX5 non-specifically in the BJ-derived cell lines (FIGS. 7 and 13). The results highlight the importance of selective ALOX activation for the induction of the RSL phenotype.
# [5] = tested on: HT-1080 cells; assay: Cell death rescue by ALOX and COX inhibitors in HT-1080 cells; format: cell-based, human; conditions: for suppression of erastin-induced cell death: inhibitor concentrations of Table 2; for suppression of cell death induced by RSL compounds / suppression of cell death induced by non-RSL compounds: HT-1080 cells, 10 μM BAI or 50 μM ZIL, 24 hours
# Procedure: HT-1080 cells were seeded in 384-well plates, treated with the indicated amount of compounds with or without 10 μM of BAI or 50 μM of ZIL for 24 hours. The percent growth inhibition was determined using alamar blue.
# Lethal compounds were added to HT-1080 cells in the presence or absence of ALOX or COX inhibitors in a 2-fold dilution series. The concentrations of the inhibitors are listed along with vendor information in Table 2. Cell viability was determined using alamar blue and percent growth inhibition calculated as described above.
# [6] = tested on: HT-1080 cells; conditions: 24 hours
# [7] = cell line not in head, footnote names EC50 (BJeLR), read-out: EC50
compound,measurement,setting,value
CCN(CC)C(=S)S [DETC],RSL phenotype (oncogenic-RAS-selective lethality),[1],none of the other anti-oxidant targeting compounds displayed an RSL phenotype
"CC(C)Oc1ccccc1-n1c(CN2CCN(C(=O)c3ccc(Cl)cc3)CC2)nc2ccccc2c1=O [dMK, 2-((4-(4-chlorophenylcarbonyl)piperazin-1-yl)methyl)-3-(2-isopropoxyphenyl)quinazolin-4(3H)-one]",RSL phenotype (oncogenic-RAS-selective lethality),[1],did not display lethality
N#CC(=C(/N)Sc1ccccc1N)/C(C#N)=C(\N)Sc1ccccc1N [Compound U0126],rescue of siGPX4-induced cell death,[2],rescued
CC(C)Oc1ccc(N2CCN(C)CC2)cc1-n1c(CN2CCN(C(=O)COc3ccc(Cl)cc3)CC2)nc2ccccc2c1=O [Compound 17],Selectivity score,[1],7.3
same,EC50,"[3]; BJeLR, read-out: EC50 (BJeLR)",900 nM
CC(C)Oc1ccc(CNCCOCCO)cc1-n1c(CN2CCN(C(=O)COc3ccc(Cl)cc3)CC2)nc2ccccc2c1=O [Compound 24],Selectivity score,[1],2.5
same,EC50,"[3]; BJeLR, read-out: EC50 (BJeLR)",2100 nM
"CC(C)Oc1ccncc1-n1c(CN2CCN(C(=O)COc3ccc(Cl)cc3)CC2)nc2ccccc2c1=O [PYR, 2-((4-(2-(4-chlorophenoxy)ethanoyl)piperazin-1-yl)methyl)-3-(4-isopropoxypyridin-3-yl)quinazolin-4(3H)-one]",RSL phenotype (oncogenic-RAS-selective lethality),[1],did not display lethality
CC(C)c1onc(C(=O)N2CCN(C(c3ccccc3)c3ccccc3)CC2)c1[N+](=O)[O-] [DPI10],GFP-ALOX5 translocation to the nuclear membrane,[4],translocated GFP-ALOX5 to the nuclear membrane
"CC(C)Oc1ccc(CN2CCOCC2)cc1-n1c(CN2CCN(C(=O)COc3ccc(Cl)cc3)CC2)nc2ccccc2c1=O [Compound 40, 2-((4-(2-(4-chlorophenoxy)ethanoyl)piperazin-1-yl)methyl)-3-(2-isopropoxy-5-(morpholinomethyl)phenyl)quinazolin-4(3H)-one]",EC50,"[3]; BJeLR, read-out: EC50 (BJeLR)",130 nM
same,EC50,[3]; [7],130 nM
CC(C)Oc1c(CN2CCOCC2)cccc1-n1c(CN2CCN(C(=O)COc3ccc(Cl)cc3)CC2)nc2ccccc2c1=O [Compound 51],EC50,[3]; [7],1170 nM
"CN[C@@H]1C[C@H]2O[C@@](C)([C@@H]1OC)n1c3ccccc3c3c4c(c5c6ccccc6n2c5c31)C(=O)NC4 [STS, Staurosporine]",GFP-ALOX5 translocation to the nuclear membrane,[4],did not
"N#CC(=Cc1ccc(O)c(O)c1)C(=O)OCC=Cc1ccccc1 [CDC, cinnamyl-3,4-dihydroxy-a-cyanocinnamate]",suppression of erastin-induced cell death,[5],strongly suppressed erastin-induced cell death
CCc1ccc(/C=C2\SC(=S)N(CCC(=O)NCCCN3CCOCC3)C2=O)cc1 [DPI2],GFP-ALOX5 translocation to the nuclear membrane,[4],translocated GFP-ALOX5 to the nuclear membrane
CC(C)Oc1ccc(CN2CCN(CCO)CC2)cc1-n1c(CN2CCN(C(=O)COc3ccc(Cl)cc3)CC2)nc2ccccc2c1=O [Compound 23],Selectivity score,[1],2.8
same,EC50,"[3]; BJeLR, read-out: EC50 (BJeLR)",1200 nM
O=[N+]([O-])c1ccc(Cl)c(Cl)c1 [DCNB],RSL phenotype (oncogenic-RAS-selective lethality),[1],none of the other anti-oxidant targeting compounds displayed an RSL phenotype
Nc1nc[nH]n1 [ATZ],RSL phenotype (oncogenic-RAS-selective lethality),[1],none of the other anti-oxidant targeting compounds displayed an RSL phenotype
"O=c1cc(-c2ccccc2)oc2cc(O)c(O)c(O)c12 [BAI, Baicalein]",suppression of cell death induced by RSL compounds,[5],strongly suppressed cell death induced by all RSL compounds
same,suppression of cell death induced by non-RSL compounds,[5],not able to suppress cell death induced by eleven non-RSL compounds
same,suppression of erastin-induced cell death,[5],strongly suppressed erastin-induced cell death
CN(C)C(=O)/N=N/C(=O)N(C)C [DIA],RSL phenotype (oncogenic-RAS-selective lethality),[1],none of the other anti-oxidant targeting compounds displayed an RSL phenotype
COCCN(CCOC)Cc1ccc(OC(C)C)c(-n2c(CN3CCN(C(=O)COc4ccc(Cl)cc4)CC3)nc3ccccc3c2=O)c1 [Compound 18],Selectivity score,[1],5.9
same,EC50,"[3]; BJeLR, read-out: EC50 (BJeLR)",140 nM
"CC(C)Oc1ccc(C=O)cc1-n1c(CN2CCN(C(=O)COc3ccc(Cl)cc3)CC2)nc2ccccc2c1=O [AE, 3-(2-((4-(2-(4-chlorophenoxy)ethanoyl)piperazin-1-yl)methyl)-4-oxoquinazolin-3(4H)-yl)-4-isopropoxybenzaldehyde]",RSL phenotype (oncogenic-RAS-selective lethality),[1],retained the RSL phenotype
lysophosphatidyl choline [lyso-PC],effect of lyso-PC on erastin-induced cell death,[6],modestly sensitized cells to erastin-induced cell death
same,differential cytotoxicity between BJeH and BJeLR,"[1]; lyso-PC alone, 24 hours",did not show differential cytotoxicity
COc1ccc2c(c1)c(CC(=O)O)c(C)n2C(=O)c1ccc(Cl)cc1 [Indomethacin],suppression of erastin-induced cell death,[5],only minimally effective in suppressing erastin lethality
CCN(CC)Cc1ccc(OC(C)C)c(-n2c(CN3CCN(C(=O)COc4ccc(Cl)cc4)CC3)nc3ccccc3c2=O)c1 [Compound 15],Selectivity score,[1],4.1
same,EC50,"[3]; BJeLR, read-out: EC50 (BJeLR)",1680 nM
CC(C)Oc1ccc(CNCCCN(C)C)cc1-n1c(CN2CCN(C(=O)COc3ccc(Cl)cc3)CC2)nc2ccccc2c1=O [Compound 22],Selectivity score,[1],3.3
same,EC50,"[3]; BJeLR, read-out: EC50 (BJeLR)",2300 nM
"C[C@H]1O[C@@H](O[C@H]2[C@@H](O)C[C@H](O[C@H]3[C@@H](O)C[C@H](O[C@H]4CC[C@@]5(C)[C@H](CC[C@@H]6[C@@H]5C[C@@H](O)[C@]5(C)[C@@H](C7=CC(=O)OC7)CC[C@]65O)C4)O[C@@H]3C)O[C@@H]2C)C[C@H](O)[C@@H]1O [digoxin, Digoxin]",GFP-ALOX5 translocation to the nuclear membrane,[4],induced GFP-ALOX5 translocation
CC(c1cc2ccccc2s1)N(O)C(N)=O (stereo not shown) [Zileuton],suppression of cell death induced by RSL compounds,[5],strongly suppressed cell death induced by all RSL compounds
same,suppression of cell death induced by non-RSL compounds,[5],not able to suppress cell death induced by eleven non-RSL compounds
same,suppression of erastin-induced cell death,[5],strongly suppressed erastin-induced cell death
same,rescue of siGPX4-induced cell death,"[2]; 10 μM U0126, 100 μM Vit. E, 100 μM DFOM, 50 μM ZIL",rescued
"N[C@@H](CCC(=O)N[C@@H](CS)C(=O)NCC(=O)O)C(=O)O [GSH, reduced glutathione]",rescue from erastin lethality by GSH supplementation,[6]; 1 mM GSH,rescued cells from erastin lethality
CC(C)Oc1ccc(CN(C)CCO)cc1-n1c(CN2CCN(C(=O)COc3ccc(Cl)cc3)CC2)nc2ccccc2c1=O [Compound 21],Selectivity score,[1],3.7
same,EC50,"[3]; BJeLR, read-out: EC50 (BJeLR)",360 nM
Vitamin E [Vit. E],rescue of siGPX4-induced cell death,[2],rescued
Nc1nc(CCl)nc(Nc2ccc3ccccc3c2)n1 [DPI17],GFP-ALOX5 translocation to the nuclear membrane,[4],translocated GFP-ALOX5 to the nuclear membrane
c1ccc2c(c1)SCc1c-2[nH]c2ccccc12 [PD-146176],suppression of erastin-induced cell death,[5],strongly suppressed erastin-induced cell death
CC(C)Oc1ccc(CN(C)CCC#N)cc1-n1c(CN2CCN(C(=O)COc3ccc(Cl)cc3)CC2)nc2ccccc2c1=O [Compound 19],Selectivity score,[1],5.1
same,EC50,"[3]; BJeLR, read-out: EC50 (BJeLR)",260 nM
